Measurements taken from PMC7407158, “Reprogramming of the Antibacterial Drug Vancomycin Results in Potent Antiviral Agents Devoid of Antibacterial Activity” (Pharmaceuticals, 2020).
In brackets after ≈: the same amount, converted by molar mass.

Key:
[1] = in vitro; conditions: human
[2] = system: yellow fever virus (vaccine strain 17D); assay: microbe, parasite or virus in culture; assay type: cell-based; conditions: Vero, read-out: Antiviral EC50 Yellow Fever Virus
[3] = in vitro; conditions: human; remark: listed apart in the source
[4] = system: Zika virus (strain MR766); assay: CPE reduction, MTS assay, Zika virus in Vero cells; assay type: cell-based; conditions: protection against virus-induced CPE, read-out: Antiviral EC50 Zika Virus
[5] = in vitro; conditions: African green monkey
[6] = system: MDCK cells; conditions: read-out: CC50 (50% cytotoxic concentration), mock-infected, MTS cell viability assay, three days
[7] = system: A/PR/8/34 virus; assay type: cell-based, Influenza A virus
[8] = system: S. aureus MRSA ATCC 33591; assay: Broth microdilution MIC, S. aureus MRSA ATCC 33591; assay type: cell-based; conditions: Staphylococcus aureus, read-out: In Vitro MIC
Procedure: (§1) Antibacterial tests were carried out by the broth microdilution method on a panel of eight Gram-positive bacterial strains, using vancomycin and teicoplanin as reference compounds.

[9] = system: E. faecalis ATCC 29212; assay: Broth microdilution MIC, E. faecalis ATCC 29212; assay type: cell-based; conditions: Enterococcus faecalis, ATCC29212; E. faecalis ATCC 29212; broth microdilution; read-out: In Vitro MIC
Procedure: as §1

[10] = system: human coronavirus 229E; assay: Coronavirus 229E virus yield reduction, RT-qPCR of viral RNA in supernatant, HEL cells; assay type: cell-based; conditions: day 4 p.i.
Procedure: To assess inhibition of human coronavirus 229E replication, HEL cells were infected and treated with 1:2 serial compound dilutions. The plate contained three virus controls (receiving no compound) and two cell controls (receiving no virus and no compound). At day 4 p.i., supernatants were frozen at −80 °C to determine the virus yield by one-step RT-qPCR assay. Two microliters supernatant was mixed with 11 µl lysis mix containing lysis enhancer and resuspension buffer at a 1:10 ratio (CellsDirect One-Step RT-qPCR kit; Invitrogen), and heated for 10 min at 75 °C. Five microliters of lysate was transferred to a PCR plate containing 9.75 µl RT-qPCR mix (CellsDirect One-Step RT-qPCR) and 0.25 µl Superscript III RT/Platinum Taq enzyme, and coronavirus-229E N-gene specific primers and probe (forward primer 5′-[…] -3′; reverse primer 5′-[…] -3′; probe 5′-FAM-[…]-ZEN-[…] -IBFQ-3′). The RT-qPCR program consisted of 15 min at 50 °C, 2 min at 95 °C, and 50 cycles of 15 s at 95 °C and 45 s at 60 °C. An N-gene plasmid standard was included for absolute quantification.

[11] = system: S. epidermidis mecA; assay: Broth microdilution MIC, S. epidermidis mecA; assay type: cell-based; conditions: Staphylococcus epidermidis, read-out: In Vitro MIC
Procedure: as §1

[12] = system: Vero, African Green monkey kidney cells; conditions: read-out: CC50 Vero; mock-infected Vero cells, MTS assay
[13] = system: HeLa, human cervix carcinoma cells; conditions: read-out: CC50 HeLa; mock-infected HeLa cells, MTS assay
[14] = system: human coronavirus 229E; assay type: cell-based; conditions: 25 µM compound (non-toxic concentration); HEL cells
[15] = system: influenza A or B viruses; assay: Anti-influenza virus activity in MDCK cells, MTS assay, overall for the three influenza A or B viruses; assay type: cell-based, Influenza A and B viruses
[16] = system: E. faecalis ATCC 51,299 VanB; assay: Broth microdilution MIC, E. faecalis ATCC 51,299 VanB; assay type: cell-based; conditions: Enterococcus faecalis, ATCC51, read-out: In Vitro MIC
Procedure: as §1

[17] = system: HEL, human embryonic lung fibroblast cells; conditions: read-out: CC50 HEL; mock-infected HEL cells, MTS assay
[18] = system: S. aureus MSSA ATCC 29213; assay: Broth microdilution MIC, S. aureus MSSA ATCC 29213; assay type: cell-based; conditions: Staphylococcus aureus; S. aureus MSSA ATCC 29213; broth microdilution; read-out: In Vitro MIC
Procedure: as §1

[19] = system: S. epidermidis ATCC 35984; assay: Broth microdilution MIC, S. epidermidis ATCC 35984; assay type: cell-based; conditions: Staphylococcus epidermidis, ATCC35984; S. epidermidis ATCC 35984; broth microdilution; read-out: In Vitro MIC
Procedure: as §1

[20] = system: B. subtilis ATCC 6633; assay: Broth microdilution MIC, B. subtilis ATCC 6633; assay type: cell-based; conditions: Bacillus subtilis, ATCC6633; B. subtilis ATCC 6633; broth microdilution; read-out: In Vitro MIC
Procedure: as §1

[21] = system: E. faecalis 15,376 VanA; assay: Broth microdilution MIC, E. faecalis 15,376 VanA; assay type: cell-based; conditions: Enterococcus faecalis, read-out: In Vitro MIC
Procedure: as §1

[22] = system: respiratory syncytial virus (RSV, strain Long); assay: CPE reduction, MTS assay, RSV in HeLa cells; assay type: cell-based; conditions: human respiratory syncytial virus, read-out: Antiviral EC50 RSV
[23] = system: Influenza A/H3N2 (A/Victoria/361/11); assay: Influenza CPE reduction in MDCK cells, MTS assay, A/H3N2; assay type: cell-based; conditions: Influenza A virus, H3N2, MDCK, read-out: Antiviral EC50 Influenza A/H3N2
[24] = system: Influenza B (B/Ned/537/05); assay: Influenza CPE reduction in MDCK cells, MTS assay, influenza B; assay type: cell-based; conditions: Influenza B virus, inhibition of virus-induced CPE by MTS assay, read-out: Antiviral EC50 Influenza B
[25] = system: Influenza A/H1N1 (A/Ned/378/05); assay: Influenza CPE reduction in MDCK cells, MTS assay, A/H1N1; assay type: cell-based; conditions: Influenza A virus, H1N1, MDCK, read-out: Antiviral EC50 Influenza A/H1N1

COc1c(C)c2c(c(O)c1C/C=C(\C)CCC(=O)O)C(=O)OC2 [Mycophenolic acid]
CC50 [1]: > 100 µM
EC50 [2]: 0.7 µM
CC50 [3]: > 100 µM
EC50 [4]: 0.8 µM
CC50 [5]: > 100 µM

CCCCCCCCCCOCc1cn(CCOCCOCCOCCOCc2cn(C3C(=O)NC(CC(N)=O)C(=O)NC4C(=O)NC5C(=O)NC(C(=O)NC(C(=O)O)c6cc(O)cc(O)c6-c6cc5ccc6O)C(O)c5ccc(c(Cl)c5)Oc5cc4cc(c5O)Oc4ccc(cc4Cl)C3O)nn2)nn1 (stereo not drawn) [Compound 6]
CC50 [6]: 41 µM
virus-induced cytopathic effect (CPE) upon microscopic inspection [7]: no virus-induced cytopathic effect (CPE) was observed
MIC [8]: 128 µg/mL (≈ 85.5 µM)
MIC [9]: 32 µg/mL (≈ 21.4 µM)
reduction of the viral RNA copy number in the supernatant ([10]; 25 µM compound): 1000 fold
EC99 value for reduction of virus yield ([10]; RT-qPCR of supernatant): 20 µM
MIC [11]: 32 µg/mL (≈ 21.4 µM)
CC50 [12]: > 100 µM
CC50 [13]: > 100 µM
coronavirus 229E-induced cytopathicity observed microscopically [14]: no coronavirus 229E-induced cytopathicity could be observed microscopically
anti-influenza virus activity (in words) [15]: robust activity
MIC [16]: 128 µg/mL (≈ 85.5 µM)
CC50 [17]: > 100 µM
MIC [18]: 128 µg/mL (≈ 85.5 µM)
MIC [19]: 32 µg/mL (≈ 21.4 µM)
MIC [20]: 32 µg/mL (≈ 21.4 µM)
MIC [21]: 128 µg/mL (≈ 85.5 µM)

NC(=O)c1ncn([C@@H]2O[C@H](CO)[C@@H](O)[C@H]2O)n1 [Ribavirin]
EC50 [22]: 5 µM
CC50 [1]: > 250 µM
EC50 [2]: 119 µM
CC50 [3]: > 250 µM
EC50 [23]: 6.4 µM
CC50 [5]: > 250 µM
EC50 [24]: 7.2 µM
EC50 [25]: 7 µM
